Article PMC10447463, “Data-mining unveils structure–property–activity correlation of viral infectivity enhancing self-assembling peptides” (Nature Communications, 2023)
Where two headings read alike, the source gives them in different places.

Assays:
[1] = Zeta-potential measurement; format: physicochemical; details: for Zeta Pot. / mV: mean; for Zeta-pot. / mV: zeta potential of peptide, Fig S15 source data
Outline: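 Readout: zeta potential (mV) derived by Smoluchowski from measured electrophoretic mobility. Preformed aggregates (1 mg/mL peptide, PBS pH 7.4, RT for 1 d) were diluted into dilute KCl electrolyte (1 mM) shortly before analysis.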

[2] = Turbidity, derived count rate of scattered light; format: physicochemical; details: for Zeta Count Rate / kcps: mean
Outline: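 Samples: 1 mg/mL in PBS pH 7.4 (from DMSO), 1 d at RT, then diluted in 1 mM KCl immediately before measurement. Triplicates, two independent runs averaged.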

[3] = Conversion rate (CR) assay with fluorescamine; format: physicochemical
Outline: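 Using ATR FT-IR (diamond, 2 cm^-1, 64 scans), lyophilized 1 mg/mL PNF samples gave β-sheet content by a published calculation. Fluorescamine signals of 3 kDa filtrates relative to unfiltered samples, normalised to DMSO as 1, yielded CR in percent.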

[4] = ref sieste 2021 or Schilling2019; cited from earlier work
Description: Supplement 41467_2023_40663_MOESM7_ESM.zip/FigS17.csv, table | column: Conversion Rate / % ( from sieste 2021 or Schilling2019)

[5] = derived count rate of scattered light, std deviation in next column
[6] = category 1 or 0 from count rate, key not given
[7] = derived count rate of scattered light, std deviation in separate column

| Substance | Zeta category ( +1 = if > 4 mV;-1 = if < -4 mV; 0 = -4mV to 4 mV) [1] | Zeta Pot. / mV ([1]; Std Zeta in next column) [mV] | Zeta-pot. / mV [1] [mV] | Zeta Count Rate Category ([2]; category 1/0, no key printed) | Zeta Count Rate / kcps [2, 5] [kcps] | Conversion Rate / % ([3]; fluorescamine assay) [%] | Conversion Rate / % ( from sieste 2021 or Schilling2019) [4] [%] | Zeta category ( +1 = if > 4 mV;-1 = if < -4 mV; 0 = -4mV to 4 mV) ([1]; category from zeta potential) | Zeta Pot. / mV ([1]; Std in separate column) [mV] | Zeta Count Rate Category [2, 6] | Zeta Count Rate / kcps [2, 7] [kcps] | Conversion Rate / % [3] [%] | Zeta Count Rate / kcps ([2]; derived count rate from zeta measurement) [kcps] | Zeta Count Rate Category ([2]; key not given) |
| --- | --- | --- | --- | --- | --- | --- | --- | --- | --- | --- | --- | --- | --- | --- |
| MKFKFQF [DF5 / CK16] | 0 (0 = -4mV to 4 mV) | -3.133 | -3.133 | 1 | 124 | 98.72 | 75 | – | – | – | – | – | – | – |
| CKIKIQINMWQ [MG1] | 1 (+1 = if > 4 mV) | 13.87 | 13.87 | 1 | 1881 | 91.29 | 87 | 1 (+1 = if > 4 mV) | 13.87 | 1 | 1881 | 91.29 | – | – |
| KIKIQI [JJA4] | -1 (-1 = if < -4 mV) | -5.63 | -5.63 | 1 | 108.3 | 32.82 | 5 | -1 (-1 = if < -4 mV) | -5.63 | 1 | 108.3 | 32.82 | – | – |
| KAKAQANMWQ [JG3] | -1 (-1 = if < -4 mV) | -19.63 | -19.63 | 0 | 56.17 | 47.47 | 65 | -1 (-1 = if < -4 mV) | -19.63 | 0 | 56.17 | 47.47 | – | – |
| CKFKFQFNMWQ [BL2] | 1 (+1 = if > 4 mV) | 17.03 | 17.03 | 1 | 142.5 | 99.03 | 96 | 1 (+1 = if > 4 mV) | 17.03 | 1 | 142.5 | 99.03 | – | – |
| CEIEIQINMWQ [TM143] | -1 (-1 = if < -4 mV) | -25.8 | -25.8 | 1 | 1570 | 59.9 | 74 | – | -25.8 | – | – | 59.9 | 1570 | 1 |
